Results on 1 molecule are retold here after patent US11992500B2, “Use of methylation inhibitors for the treatment of autoimmune diseases” (Rush University Medical Center, priority 2018, dated 2024).

Entries after “also recorded” stand apart in the source; their conditions may differ.

Data set [1] deals with B cells of mice with PGIA. Put plainly: Molecular, cellular and histological analyses of AzaC-treated PGIA mice. Format: in vivo, BALB/c mice. From the text: RNA isolation, cDNA synthesis, and quantitative reverse transcription-polymerase chain reaction (qRT-PCR): Total RNA from cell culture was isolated using QIAmp RNA Blood Kit (Qiagen) or Direct-Zol™ RNA miniprep Kit (Zymo Research). Each RNA sample was digested with 4U of TurboDNase™ (Ambion) and purified with RNA clean and concentrator-5 (Zymo Research) and samples quantified using NanoDrop 1000 spectrophotometer. Primary mouse cells were collected from the spleens, on day 9 after the third PG injection. B cells were purified using antibody-coated magnetic beads (StemCell Technologies). RNA was isolated from purified mouse lymphocytes using a TRI reagent (Sigma-Aldrich) immediately after separation.
Genomic DNA (gDNA) purification, Global DNA methylation assessment and Methylated CpG island ecovery assay (MIRA)-assisted microarray (MIRA-chip) and data analysis: gDNA was isolated from affinity purified B cells using QIAamp DNA Mini Kit (Qiagen). Global DNA methylation analysis was performed using Imprint Methylated DNA Quantification kit (Sigma-Aldrich). Experiments were conducted according to manufacturer instructions MIRA enrichment of methylated gDNA fractions were performed by MethylCollector™ Ultra kit (Active Motif), captured fractions were labeled and hybridized to microarrays harboring all mouse promoters and CpG island outside of the promoter regions (NimbleGene). Data analysis was performed as described before.
In another embodiment, the effect of AzaC treatment on germinal center (GC) formation in animals was investigated. Germinal center formation was examined in control (DDA adjuvant-injected and arthritic non-treated) and arthritic AzaC-treated mice (FIG. 4(C-D)). […] Joint-draining lymph nodes (FIG. 4(C)) and spleens (FIG. 4(D)). DDA-injected (adjuvant control), vehicle-treated mice with PGIA and AzaC-treated mice with PGIA. Green-GL7 (activated B and T cell marker), Red-CD45/B220 (B cells), Blue-CD4 & CD8a (T cells). Arrows point to GCs. GC %-percentage of GC-containing follicles observed in the investigated lymph nodes and spleens (n=36 follicles from LNs, n=106 follicles from spleens). Green sidebars-percentage of GC carrying follicles. Red sidebars are follicles without GC.

For data set [2] the following is noted: cancer patients, effective dose; cited from earlier work.
The mark [3] stands for this setting: B cells of AzaC-treated PGIA mice, RT-qPCR.

Consider `Nc1ncn([C@@H]2O[C@H](CO)[C@@H](O)[C@H]2O)c(=O)n1` [AzaC, 4-Amino-1-(β-D-ribofuranosyl)-1,3,5-triazin-2(1H)-one], for which, in data set [1] (setting [3]), the “Ahr expression in vivo” value was “restore Ahr expression in vivo; also recorded: increased Ahr expression; also recorded: sufficient for releasing Ahr expression from DNA methylation-mediated blockage; also recorded: reactivated” and the “Aicda expression in vivo” value is “markedly inhibited; also recorded: downregulation of Aicda expression”. Besides, the “DNA methylation level of Ahr promoter (MIRA)” value in data set [1] (B cells of AzaC-treated arthritic mice) is recorded as “erased arthritis-associated DNA hypermethylation; also recorded: reduced”. Besides, the “Germinal center (GC) formation” value in data set [1] (spleen and draining lymph nodes) is “seriously impaired GC development and reduced GC number; also recorded: diminished; also recorded: impaired GC formation”. Also, in data set [1] (splenic B cells of AzaC-treated PGIA mice, qRT-PCR), the “Post-recombinant IgG1 transcript level (class switch recombination)” value is on record as “significantly decreased”. Moreover, the “Adverse drug events / side effects” value in data set [2] is “triggers cytotoxicity and induces nausea, vomiting, fevers, diarrhea, rigors and many other side effects; also recorded: induces severe adverse drug events (ADEs)”.
